The supplement of paper PMC10627819

Legend:
S. aureus DSM 20231 [1] = test: fitness (endpoint OD595 vs no drug) (fraction); higher = more growth
How it was run: (§1)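 Each well of a 384-well plate received 30 µl of culture at OD595 0.01, or 55 µl for S. pneumoniae. TSB, LB Lennox or CY served as media at 37 °C. OD595 was taken every 30 min for 14 h and corrected by subtracting the first reading. Fitness is the optical density at stationary-phase entry divided by the robust mean of no-drug controls, capped at 1.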

S. aureus Newman [2] = test: as above
How it was run: as §1

S. pneumoniae D39V [3] = test: as above
How it was run: as §1

B. subtilis 168 = test: Bliss interaction score (quartile over a dose matrix) (fitness difference); higher = more antagonism (negative = synergy)
How it was run: (§2)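 Growth was read as OD595 when cultures entered stationary phase, and each value was divided by the plate's robust no-drug mean and capped at 1. This normalised ratio is the fitness value, and fitness for each single drug came from the combination data. The Bliss score subtracts the expected fitness, taken as the product, from the observed fitness and is given as quartiles across technical, biological and donor/recipient replicates.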

S. aureus DSM 20231 [4] = test: as above
How it was run: as §2

S. aureus Newman [5] = test: as above
How it was run: as §2

S. pneumoniae D39V [6] = test: as above
How it was run: as §2
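Throughout, for Bliss interaction score (quartile over a dose matrix): first quartile when negative (synergy) and third quartile when positive (antagonism).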

O=C(O[C@@H]1Cc2c(O)cc(O)cc2O[C@@H]1c1cc(O)c(O)c(O)c1)c1cc(O)c(O)c(O)c1 [EGCG] + Cn1nnc(-c2ccc(-c3ccc(N4C[C@H](CO)OC4=O)cc3F)cn2)n1 [Tedizolid]
fitness
Conditions	partner 0.03125 µg/mL	partner 0.0625 µg/mL	partner 0.125 µg/mL	partner 0.25 µg/mL	partner 0.5 µg/mL
S. aureus DSM 20231 [1], first compound 12.5 µg/mL	–	0.865	0.734	0.401	–
S. aureus DSM 20231 [1], first compound 25 µg/mL	–	0.762	0.783	0.569	–
S. aureus DSM 20231 [1], first compound 50 µg/mL	–	0.805	0.714	0.326	–
S. aureus Newman [2], first compound 12.5 µg/mL	–	0.735	0.673	0.329	–
S. aureus Newman [2], first compound 25 µg/mL	–	0.783	0.679	–	–
S. aureus Newman [2], first compound 50 µg/mL	–	0.745	0.653	–	–
S. pneumoniae D39V [3], first compound 12.5 µg/mL	0.913	0.925	–	0.308	0.194
S. pneumoniae D39V [3], first compound 25 µg/mL	0.974	0.94	0.718	0.328	0.107
S. pneumoniae D39V [3], first compound 50 µg/mL	0.993	0.959	0.791	–	0.262

Conditions	Bliss interaction score
B. subtilis 168	0.0863
S. aureus DSM 20231 [4]	0.11
S. aureus Newman [5]	-0.0709
S. pneumoniae D39V [6]	-0.0687

O=C(O[C@@H]1Cc2c(O)cc(O)cc2O[C@@H]1c1cc(O)c(O)c(O)c1)c1cc(O)c(O)c(O)c1 [EGCG] + CN[C@H](CC(C)C)C(=O)N[C@H]1C(=O)N[C@@H](CC(N)=O)C(=O)N[C@H]2C(=O)N[C@H]3C(=O)N[C@H](C(=O)N[C@H](C(=O)O)c4cc(O)cc(O)c4-c4cc3ccc4O)[C@H](O)c3ccc(c(Cl)c3)Oc3cc2cc(c3O[C@@H]2O[C@H](CO)[C@@H](O)[C@H](O)[C@H]2O[C@H]2C[C@](C)(N)[C@H](O)[C@H](C)O2)Oc2ccc(cc2Cl)[C@H]1O [Vancomycin]
fitness
Conditions	first compound 12.5 µg/mL	first compound 25 µg/mL	first compound 50 µg/mL
S. aureus DSM 20231 [1], partner 0.1875 µg/mL	0.846	0.747	0.753
S. aureus DSM 20231 [1], partner 0.375 µg/mL	0.842	0.781	0.836
S. aureus DSM 20231 [1], partner 0.75 µg/mL	0.865	0.885	0.738
S. aureus Newman [2], partner 0.1875 µg/mL	0.754	0.782	–
S. aureus Newman [2], partner 0.375 µg/mL	0.757	0.766	0.846
S. aureus Newman [2], partner 0.75 µg/mL	0.789	0.776	0.778
S. pneumoniae D39V [3], partner 0.03125 µg/mL	0.907	0.913	0.931
S. pneumoniae D39V [3], partner 0.0625 µg/mL	0.887	0.901	0.959
S. pneumoniae D39V [3], partner 0.125 µg/mL	0.889	0.89	0.948
S. pneumoniae D39V [3], partner 0.25 µg/mL	0.317	–	0.397
S. pneumoniae D39V [3], partner 0.5 µg/mL	0.0543	0.0794	0.143

Conditions	Bliss interaction score
B. subtilis 168	0.0425
S. aureus DSM 20231 [4]	0.0881
S. aureus Newman [5]	-0.0625
S. pneumoniae D39V [6]	0.0478

COc1c(N2C[C@@H]3CCCN[C@@H]3C2)c(F)cc2c(=O)c(C(=O)O)cn(C3CC3)c12 [Moxifloxacin] + Cn1nnc(-c2ccc(-c3ccc(N4C[C@H](CO)OC4=O)cc3F)cn2)n1 [Tedizolid]
fitness
Conditions	partner 0.03125 µg/mL	partner 0.0625 µg/mL	partner 0.125 µg/mL	partner 0.25 µg/mL	partner 0.5 µg/mL
S. aureus DSM 20231 [1], first compound 0.0075 µg/mL	–	0.813	0.765	0.411	–
S. aureus DSM 20231 [1], first compound 0.015 µg/mL	–	0.755	0.704	0.453	–
S. aureus DSM 20231 [1], first compound 0.03 µg/mL	–	0.682	0.7	0.653	–
S. aureus Newman [2], first compound 0.0075 µg/mL	–	0.755	0.737	0.41	–
S. aureus Newman [2], first compound 0.015 µg/mL	–	0.587	0.581	0.291	–
S. aureus Newman [2], first compound 0.03 µg/mL	–	–	0.343	0.178	–
S. pneumoniae D39V [3], first compound 0.0037 µg/mL	0.887	0.877	0.741	–	–
S. pneumoniae D39V [3], first compound 0.005 µg/mL	–	–	0.851	0.8	0.441
S. pneumoniae D39V [3], first compound 0.0075 µg/mL	0.904	0.871	0.761	–	–
S. pneumoniae D39V [3], first compound 0.01 µg/mL	–	–	0.857	0.775	0.466
S. pneumoniae D39V [3], first compound 0.015 µg/mL	0.897	0.822	0.761	–	–
S. pneumoniae D39V [3], first compound 0.02 µg/mL	–	–	0.842	0.778	0.49

fitness, S. aureus DSM 20231 [1], one replicate
Conditions	partner 0.0625 µg/mL	partner 0.125 µg/mL	partner 0.25 µg/mL
first compound 0.06 µg/mL	0.67	0.69	0.727
first compound 0.12 µg/mL	0.511	0.539	0.595

Conditions	Bliss interaction score
B. subtilis 168	-0.0253
S. aureus DSM 20231 [4]	0.103
S. aureus Newman [5]	0.0881
S. pneumoniae D39V [6]	-0.0629
